Consider 7 molecules from patent publication US7880007B2, “Bicyclic substituted phenyl piperidine modulators of muscarinic receptors” (Vertex Pharmaceuticals Incorporated, priority 2004, dated 2011).

Holding throughout (format): cell-based
One assay addresses T1, M4 muscarinic receptor (Homo sapiens, UniProt P08173).
T1 construct: expressed in transfected cells; host or cells: CHO (M4-CHO)
T1 sequence (P08173 1-479): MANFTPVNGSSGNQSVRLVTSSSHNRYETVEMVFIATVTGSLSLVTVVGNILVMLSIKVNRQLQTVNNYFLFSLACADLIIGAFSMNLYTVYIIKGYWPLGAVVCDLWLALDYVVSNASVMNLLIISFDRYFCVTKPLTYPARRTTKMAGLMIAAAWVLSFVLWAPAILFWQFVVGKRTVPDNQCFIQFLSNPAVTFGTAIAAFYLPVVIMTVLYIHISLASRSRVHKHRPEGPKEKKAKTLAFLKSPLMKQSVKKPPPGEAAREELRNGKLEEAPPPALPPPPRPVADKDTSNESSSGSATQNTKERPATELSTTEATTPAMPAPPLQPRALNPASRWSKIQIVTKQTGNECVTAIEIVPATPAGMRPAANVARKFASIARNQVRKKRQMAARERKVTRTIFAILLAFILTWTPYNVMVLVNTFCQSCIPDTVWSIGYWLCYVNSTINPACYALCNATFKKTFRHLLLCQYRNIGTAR
The assay can be described thus: Functional mobilization of intracellular calcium (FLIPR), M4-CHO cells. Conditions: for M4 Activity: M4-CHO cells, calcium mobilization (FLIPR). The procedure, abridged: (§1)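 Calcium mobilisation read by FLIPR over 60 s (ex 488/em 540 nm) in recombinant muscarinic CHO lines loaded with calcium dye plus 1 mM probenecid. Compounds tested as agonists alone, or as inhibitors against EC80 carbachol after 15 min pre-incubation or co-addition; 0.5% DMSO; efficacy scaled to carbachol maximal response.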

The target of another assay is T2, M3 muscarinic receptor (Homo sapiens, UniProt P20309).
T2 construct: expressed in transfected cells; host or cells: CHO (M3-CHO)
T2 sequence (P20309 whole entry): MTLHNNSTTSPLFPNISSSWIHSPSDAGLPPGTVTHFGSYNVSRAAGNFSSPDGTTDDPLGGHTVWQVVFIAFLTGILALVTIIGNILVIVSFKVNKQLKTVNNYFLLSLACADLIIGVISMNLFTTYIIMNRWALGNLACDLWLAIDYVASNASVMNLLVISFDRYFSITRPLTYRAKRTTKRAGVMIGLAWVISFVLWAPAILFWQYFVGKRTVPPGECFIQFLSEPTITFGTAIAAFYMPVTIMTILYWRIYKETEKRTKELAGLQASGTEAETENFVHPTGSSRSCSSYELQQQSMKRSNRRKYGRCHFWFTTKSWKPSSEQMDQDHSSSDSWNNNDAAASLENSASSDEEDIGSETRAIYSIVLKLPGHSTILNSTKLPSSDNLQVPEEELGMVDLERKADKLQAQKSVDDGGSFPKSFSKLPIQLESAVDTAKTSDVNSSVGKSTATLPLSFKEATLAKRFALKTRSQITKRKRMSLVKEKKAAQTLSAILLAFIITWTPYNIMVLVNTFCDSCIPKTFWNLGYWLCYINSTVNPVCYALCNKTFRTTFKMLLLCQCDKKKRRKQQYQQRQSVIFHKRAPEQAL
The assay is described as follows: Functional mobilization of intracellular calcium (FLIPR), M3-CHO cells. Conditions: for M3 Activity: M3-CHO cells, calcium mobilization (FLIPR). The essentials: as §1
(In general: Calcium flux is commonly read through the fluorescence of an indicator in the cells.)

For another assay, the target named is T3, M2 muscarinic receptor (Homo sapiens, UniProt P08172).
T3 construct: expressed in transfected cells; host or cells: CHO (M2-CHO)
T3 sequence (P08172 1-466): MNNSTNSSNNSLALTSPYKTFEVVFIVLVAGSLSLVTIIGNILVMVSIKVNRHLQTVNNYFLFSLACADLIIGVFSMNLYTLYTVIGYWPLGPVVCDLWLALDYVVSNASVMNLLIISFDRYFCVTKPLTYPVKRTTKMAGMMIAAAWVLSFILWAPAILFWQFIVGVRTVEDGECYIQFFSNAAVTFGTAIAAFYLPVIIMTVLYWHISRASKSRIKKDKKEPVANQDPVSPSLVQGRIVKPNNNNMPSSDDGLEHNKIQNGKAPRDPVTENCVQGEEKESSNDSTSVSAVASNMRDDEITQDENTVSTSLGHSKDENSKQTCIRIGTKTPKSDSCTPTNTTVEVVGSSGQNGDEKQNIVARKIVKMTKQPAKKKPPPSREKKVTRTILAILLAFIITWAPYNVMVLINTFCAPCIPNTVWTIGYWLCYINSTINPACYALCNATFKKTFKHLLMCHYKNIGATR
The assay is described as follows: Functional mobilization of intracellular calcium (FLIPR), M2-CHO cells. Conditions: for M2 Activity: M2-CHO cells, calcium mobilization (FLIPR). The essentials:
as §1

For the next assay, the target named is T4, M1 muscarinic receptor (Homo sapiens, UniProt P11229).
T4 construct: expressed in transfected cells; host or cells: CHO (M1-CHO)
T4 sequence (P11229 1-460): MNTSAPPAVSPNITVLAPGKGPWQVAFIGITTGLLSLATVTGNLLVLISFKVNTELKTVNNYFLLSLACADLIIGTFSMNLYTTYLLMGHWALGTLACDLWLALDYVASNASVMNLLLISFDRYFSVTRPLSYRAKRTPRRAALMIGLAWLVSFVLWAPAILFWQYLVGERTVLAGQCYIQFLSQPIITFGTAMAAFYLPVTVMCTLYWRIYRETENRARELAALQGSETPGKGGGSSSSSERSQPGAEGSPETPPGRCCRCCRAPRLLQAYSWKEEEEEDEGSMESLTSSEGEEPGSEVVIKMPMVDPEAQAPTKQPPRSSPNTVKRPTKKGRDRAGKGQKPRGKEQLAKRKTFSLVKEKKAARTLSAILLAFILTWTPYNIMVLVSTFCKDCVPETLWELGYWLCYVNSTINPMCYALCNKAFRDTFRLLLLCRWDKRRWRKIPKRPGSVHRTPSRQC
The assay is described as follows: Functional mobilization of intracellular calcium (FLIPR), M1-CHO cells. As to conditions: for M1 Activity: M1-CHO cells, calcium mobilization (FLIPR). The essentials: as §1

Setting [1] is: 100% efficacy = maximum response obtained with the Carbachol control.
[2] abbreviates: 100% efficacy is the maximum response obtained with the Carbachol control.

In general, Emax refers to the maximal effect, on the per cent scale that the assay sets.

On to `CCOC(=O)N1C2CCC1CC(N1CCC(c3cc(F)ccc3OC)CC1)C2` (centres unmarked) [Compound 330], for which the Emax was 25 to 100% on M4 muscarinic receptor (setting [1]), less than 25% on M3 muscarinic receptor (setting [1]), 25 to 100% on M2 muscarinic receptor (setting [1]) and 25 to 100% on M1 muscarinic receptor (setting [1]). In addition, the “M4 Activity” value on M4 muscarinic receptor is listed as “+++ (activity was measured to be less than 1.0 μM)”. Further, the “M3 Activity” value on M3 muscarinic receptor is reported as “+ (activity was measured to be greater than 5.0 μM)”. The “M2 Activity” value at M2 muscarinic receptor is listed as “+++ (activity was measured to be less than 1.0 μM)”. On M1 muscarinic receptor, the “M1 Activity” value is recorded as “+++ (activity was measured to be less than 1.0 μM)”.
For `CCOC(=O)N1CCC(CN2CCC(c3cc(-c4ccc(S(=O)(=O)N5CCCC5)cc4)ccc3OC)CC2)CC1` [Compound 411], the Emax at M4 muscarinic receptor (setting [2]) is less than 25%; on M3 muscarinic receptor (setting [2]), less than 25%; on M2 muscarinic receptor (setting [2]), less than 25%; on M1 muscarinic receptor (setting [2]), 25 to 100%. Also, the “M4 Activity” value on M4 muscarinic receptor is recorded as “+++ (activity was measured to be less than 1.0 μM)”. The “M3 Activity” value on M3 muscarinic receptor is “+ (activity was measured to be greater than 5.0 μM)”. Also, at M2 muscarinic receptor, the “M2 Activity” value is “+ (activity was measured to be greater than 5.0 μM)”. Moreover, on M1 muscarinic receptor, the “M1 Activity” value is “+++ (activity was measured to be less than 1.0 μM)”.
Regarding `COc1ccccc1C1CCN(CC2CCCOC2)CC1` (centres unmarked) [Compound 2], the Emax is 25 to 100% at M4 muscarinic receptor (setting [1]), less than 25% at M3 muscarinic receptor (setting [1]), less than 25% at M2 muscarinic receptor (setting [1]) and 25 to 100% at M1 muscarinic receptor (setting [1]). Besides, the “M4 Activity” value at M4 muscarinic receptor is “++ (activity was measured to be from 1.0 μM to 5.0 μM)”. Besides, the “M3 Activity” value at M3 muscarinic receptor is reported as “+ (activity was measured to be greater than 5.0 μM)”. In addition, the “M2 Activity” value on M2 muscarinic receptor was “+ (activity was measured to be greater than 5.0 μM)”. For the same molecule, the “M1 Activity” value on M1 muscarinic receptor is given as “+ (activity was measured to be greater than 5.0 μM)”.
Consider `CCS(=O)(=O)c1ccc(-c2ccc(OC)c(C3CCN([C@H]4C[C@H]5CC[C@H]4C5)CC3)c2)cc1` [Compound 258], for which the Emax on M4 muscarinic receptor (setting [1]) is 25 to 100%; on M3 muscarinic receptor (setting [1]) it was less than 25%; on M2 muscarinic receptor (setting [1]), less than 25%; at M1 muscarinic receptor (setting [1]) it was 25 to 100%. The “M4 Activity” value on M4 muscarinic receptor is recorded as “++ (activity was measured to be from 1.0 μM to 5.0 μM)”. The “M3 Activity” value on M3 muscarinic receptor was “+ (activity was measured to be greater than 5.0 μM)”. Also, the “M2 Activity” value on M2 muscarinic receptor is recorded as “+ (activity was measured to be greater than 5.0 μM)”. Further, the “M1 Activity” value on M1 muscarinic receptor is “+ (activity was measured to be greater than 5.0 μM)”.
As for `COc1ccccc1C1CCN(C2CCCCCC2)CC1` [Compound 224], the Emax was 25 to 100% at M4 muscarinic receptor (setting [1]), less than 25% at M3 muscarinic receptor (setting [1]), less than 25% on M2 muscarinic receptor (setting [1]) and 25 to 100% on M1 muscarinic receptor (setting [1]). Moreover, the “M4 Activity” value at M4 muscarinic receptor is on record as “+++ (activity was measured to be less than 1.0 μM)”. Further, the “M3 Activity” value at M3 muscarinic receptor was “+ (activity was measured to be greater than 5.0 μM)”. Besides, on M2 muscarinic receptor, the “M2 Activity” value is on record as “+ (activity was measured to be greater than 5.0 μM)”. Further, at M1 muscarinic receptor, the “M1 Activity” value was “+ (activity was measured to be greater than 5.0 μM)”.
As for `CCC(=O)c1ccc(OC)c(C2CCN([C@H]3C[C@H]4CC[C@H]3C4)CC2)c1` [Compound 282], the Emax is 25 to 100% on M4 muscarinic receptor (setting [1]), less than 25% on M3 muscarinic receptor (setting [1]), less than 25% on M2 muscarinic receptor (setting [1]) and less than 25% on M1 muscarinic receptor (setting [1]). Moreover, at M4 muscarinic receptor, the “M4 Activity” value is “++ (activity was measured to be from 1.0 μM to 5.0 μM)”. Moreover, the “M3 Activity” value on M3 muscarinic receptor is listed as “+ (activity was measured to be greater than 5.0 μM)”. The “M2 Activity” value on M2 muscarinic receptor was “+ (activity was measured to be greater than 5.0 μM)”. Also, the “M1 Activity” value at M1 muscarinic receptor is reported as “+ (activity was measured to be greater than 5.0 μM)”.
With `CCOC(=O)N1CCC(N2CCC(c3cc(-c4ccc(S(C)(=O)=O)cc4)ccc3OC)CC2)CC1` [Compound 43], the Emax at M4 muscarinic receptor (setting [1]) is 25 to 100%; on M3 muscarinic receptor (setting [1]) it was 25 to 100%; at M2 muscarinic receptor (setting [1]) it was 25 to 100%; at M1 muscarinic receptor (setting [1]), more than 100%. The “M4 Activity” value on M4 muscarinic receptor was “+++ (activity was measured to be less than 1.0 μM)”. The “M3 Activity” value on M3 muscarinic receptor is “+ (activity was measured to be greater than 5.0 μM)”. Further, at M2 muscarinic receptor, the “M2 Activity” value was “+++ (activity was measured to be less than 1.0 μM)”. Further, the “M1 Activity” value on M1 muscarinic receptor is “+++ (activity was measured to be less than 1.0 μM)”.
